What was measured:
TEV protease = target: T1, TEV protease (Tobacco etch virus, UniProt P04517); assay: Effect of additives on TEV protease cleavage measured by fluorescence polarization; format: biochemical; conditions: At3g16990 in pVP15 substrate, 0.5 μM TEV protease, pH 8.0, ca. 22° C.; increasing additive concentrations
T1 construct: TEV Protease, 0.5 μM
Excerpt: The following series of Examples exemplify the efficacy of using the disclosed invention in measuring protease cleavage in the presence of various potentially interfering compounds. Briefly, each reaction comprised mixing three components: 1) a mixture of labeled and unlabeled protease substrates; 2) TEV protease; and 3) the potentially interfering additive. The results are presented graphically in FIGS. 3-14 The reaction buffer contained the following components (final concentrations noted):
Each stated additive as shown in FIGS. 3-14 was added at the stated concentrations. The TEV protease was added to each reaction last, just prior to placing the reactions into the photometer. The reactions were followed in real-time, at ambient temperature (ca. 22° C.). Fluorescence anisotropy was measured at the time points noted in FIGS. 3-14.
The following figures present the fluorescence data for each of the stated additives: FIG. 3: urea (M), FIG. 4: sucrose concentration (M), FIG. 5: sodium dodecylsulfate (SDS) (wt/vol %), FIG. 6: sodium chloride (NaCl) (M), FIG. 7: guanidium hydrochloride (M), FIG. 8: glycine concentration (wt/vol %), FIG. 9: glycerol concentration (vol/vol %), FIG. 10: ethanol concentration (vol/vol %), FIG. 11: ethylene glycol concentration (vol/vol %), FIG. 12: dimethylsulfoxide (DMSO) (vol/vol %), FIG. 13: calcium chloride (CaCl2) (M), and FIG. 14: arginine (wt/vol %).
Fluorescence anisotropy was measured using a Tecan 384 Ultra plate spectrofluorimeter. Excitation was at 485 nm (25 nm bandpass) and emission was measured at 525 nm (20 nm bandpass). Anisotropy measurements were made at 2 to 5 min intervals for 5 hours. The observed anisotropy is the sum of the anisotropy of the individual fluorescent components, or robs=Σfiri, where robs, is the observed anisotropy, fi is the fractional fluorescence intensity of component i, and ri is the anisotropy of component i. See J. Lakowicz, “Principles of fluorescence spectroscopy,” Kluwer Academic/Plenum Publishers, New York, 1999. For a two-state system with the fluorophore attached to either the intact fusion protein or to the small peptide produced by proteolysis, the fractional extent of reaction is given by ξ=(rf−robs)/(rf−rc), where rf is the fluorescence anisotropy of the intact fusion protein and rc is the fluorescence anisotropy of small peptide. This treatment assumes that there is no difference in the fluorescence intensity of the fluorophore attached to either the fusion protein or the small peptide, and this is justified by the observation that there was no significant change in total fluorescence intensity as the reactions proceeded.

[1] = system: substrate 23-F (His6-tetraCys-X-MBP); assay: Fluorescence anisotropy proteolysis assay with substrate 23-F; format: biochemical, E. coli; conditions: initial rate by fluorescence anisotropy, normalized to the rate of the protease with its preferred cognate substrate
Excerpt: (§1) All protease substrates were expressed in E. coli Rosetta pLacI Rare to provide compensation for rare codons (see Kirienko et al. (2004) Biochemistry (Mosc) 69:527-535; available commercially from Novagen, a wholly-owned subsidiary of EMD Biosciences, Inc., Madison, Wis.). The expression was done in 2-L PET bottles (Millard et al. (2003) Protein Expr. Purif. 29:311-320). The protein purification followed typical IMAC purification procedures (see Sambrook & Russell, supra) including elution in an imidazole gradient from 0-350 mM. After SDS-PAGE analysis, appropriate fractions were pooled and desalted into 20 mM phosphate, pH 7.5, containing 100 mM NaCl and 0.3 mM TCEP. […]
(§2) Protease assays were conducted using a combination of 20 μM unlabeled and 40 nM labeled protease substrates unless noted otherwise. […] This decreased the amount of time between mixing and measurement to less than three minutes and allowed the fluorescence anisotropy measured at the first time point to closely approximate the anisotropy of the intact fusion protein. […]
(§3) Fluorescence anisotropy was measured using a Tecan 384 Ultra plate spectrofluorimeter. Excitation was at 485 nm (25 nm bandpass) and emission was measured at 525 nm (20 nm bandpass). […] See J. Lakowicz, “Principles of fluorescence spectroscopy,” Kluwer Academic/Plenum Publishers, New York, 1999. […]

[2] = system: substrate 21-F (His6-tetraCys-X-MBP); assay: Fluorescence anisotropy proteolysis assay with substrate 21-F; format: biochemical, E. coli; conditions: initial rate by fluorescence anisotropy, normalized to the rate of the protease with its preferred cognate substrate
Excerpt: as §1, §2, §3

[3] = system: substrate 26-F (His6-tetraCys-X-MBP); assay: Fluorescence anisotropy proteolysis assay with substrate 26-F; format: biochemical, E. coli; conditions: initial rate by fluorescence anisotropy, normalized to the rate of the protease with its preferred cognate substrate
Excerpt: as §1, §2, §3

[4] = system: substrate 22-F (His6-tetraCys-X-MBP); assay: Fluorescence anisotropy proteolysis assay with substrate 22-F; format: biochemical, E. coli; conditions: for Relative rate of reaction, substrate 22F: initial rate by fluorescence anisotropy, normalized to the rate of the protease with its preferred cognate substrate
Excerpt: (§4) All protease substrates were expressed in E. coli Rosetta pLacI Rare to provide compensation for rare codons (see Kirienko et al. (2004) Biochemistry (Mosc) 69:527-535; available commercially from Novagen, a wholly-owned subsidiary of EMD Biosciences, Inc., Madison, Wis.). The expression was done in 2-L PET bottles (Millard et al. (2003) Protein Expr. Purif. 29:311-320). The protein purification followed typical IMAC purification procedures (see Sambrook & Russell, supra) including elution in an imidazole gradient from 0-350 mM. After SDS-PAGE analysis, appropriate fractions were pooled and desalted into 20 mM phosphate, pH 7.5, containing 100 mM NaCl and 0.3 mM TCEP. Proteins were concentrated to a final concentration of 300-600 μM using centrifugal concentrators. Glycerol (50% v/v) was added to all protease substrates except 26-F and frozen at −20° C. The Arabidopsis targets At3g03410 (expressed from pVP14) and At3g16990 (expressed from pVP15) were flash frozen as drops in liquid nitrogen and stored at −80° C.
(§5) A 20% molar excess of the tetraCys reagent was incubated overnight (˜12 h) with protein (10-100 μg) at room temperature in 20 mM phosphate, pH 7.5, containing 100 mM NaCl, 0.3 mM TCEP, and 1 mM β-mercaptoethanol. After the labeling reaction, unincorporated fluorophore was removed by two successive cycles of 10-fold dilution and concentration using centrifugal concentrators.
Protease assays were conducted using a combination of 20 μM unlabeled and 40 nM labeled protease substrates unless noted otherwise. TEV protease reactions were conducted in 20 mM Tris-HCl, pH 8.0, containing 100 mM NaCl, 0.3 mM TCEP, 1 mM β-mercaptoethanol, and 5 mM EDTA. Reactions with thrombin, enterokinase, and Factor Xa were performed in the buffer supplied by the manufacturer. Trypsin reactions were carried out in the buffer supplied for thrombin. Assays were carried out in black Cliniplate 384 well plates in a 40 μL reaction volume or in black Greiner 384 well plates using an 80 μL reaction volume. […] This decreased the amount of time between mixing and measurement to less than three minutes and allowed the fluorescence anisotropy measured at the first time point to closely approximate the anisotropy of the intact fusion protein. […]
Fluorescence anisotropy was measured using a Tecan 384 Ultra plate spectrofluorimeter. Excitation was at 485 nm (25 nm bandpass) and emission was measured at 525 nm (20 nm bandpass). […] The observed anisotropy is the sum of the anisotropy of the individual fluorescent components, or robs=Σfiri, where robs, is the observed anisotropy, fi is the fractional fluorescence intensity of component i, and ri is the anisotropy of component i. See J. Lakowicz, “Principles of fluorescence spectroscopy,” Kluwer Academic/Plenum Publishers, New York, 1999. For a two-state system with the fluorophore attached to either the intact fusion protein or to the small peptide produced by proteolysis, the fractional extent of reaction is given by ξ=(rf−robs)/(rf−rc), where rf is the fluorescence anisotropy of the intact fusion protein and rc is the fluorescence anisotropy of small peptide. This treatment assumes that there is no difference in the fluorescence intensity of the fluorophore attached to either the fusion protein or the small peptide, and this is justified by the observation that there was no significant change in total fluorescence intensity as the reactions proceeded. […]

[5] = system: substrate 24-F (His6-tetraCys-X-MBP); assay: Fluorescence anisotropy proteolysis assay with substrate 24-F; format: biochemical, E. coli; conditions: initial rate by fluorescence anisotropy, normalized to the rate of the protease with its preferred cognate substrate
Excerpt: as §1, §2, §3

[6] = system: substrate 25-F (His6-tetraCys-X-MBP); assay: Fluorescence anisotropy proteolysis assay with substrate 25-F; format: biochemical, E. coli; conditions: for Relative rate of reaction, substrate 25F: initial rate by fluorescence anisotropy, normalized to the rate of the protease with its preferred cognate substrate; for Specific reaction rate: substrate 25-F
Excerpt: as §4, §5
as §2, with “otherwise. TEV protease reactions were conducted in 20 mM Tris-HCl, pH 8.0, containing 100 mM NaCl, 0.3 mM TCEP, 1 mM β-mercaptoethanol, and 5 mM EDTA.” for “otherwise.”
Fluorescence anisotropy was measured using a Tecan 384 Ultra plate spectrofluorimeter. Excitation was at 485 nm (25 nm bandpass) and emission was measured at 525 nm (20 nm bandpass). […] The observed anisotropy is the sum of the anisotropy of the individual fluorescent components, or robs=Σfiri, where robs, is the observed anisotropy, fi is the fractional fluorescence intensity of component i, and ri is the anisotropy of component i. See J. Lakowicz, “Principles of fluorescence spectroscopy,” Kluwer Academic/Plenum Publishers, New York, 1999. For a two-state system with the fluorophore attached to either the intact fusion protein or to the small peptide produced by proteolysis, the fractional extent of reaction is given by ξ=(rf−robs)/(rf−rc), where rf is the fluorescence anisotropy of the intact fusion protein and rc is the fluorescence anisotropy of small peptide. […]

[7] = reactions with cognate His6-tetraCys-X-MBP substrates

T1 sequence (P04517 2038-2279): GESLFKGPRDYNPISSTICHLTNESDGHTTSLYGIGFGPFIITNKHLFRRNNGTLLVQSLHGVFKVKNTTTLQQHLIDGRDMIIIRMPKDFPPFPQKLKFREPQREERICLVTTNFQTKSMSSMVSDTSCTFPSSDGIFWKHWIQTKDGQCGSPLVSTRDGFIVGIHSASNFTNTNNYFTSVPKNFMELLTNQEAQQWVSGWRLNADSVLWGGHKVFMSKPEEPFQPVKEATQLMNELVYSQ

For `[Ca+2].[Cl-].[Cl-]` [CaCl2, calcium chloride], the “Effect of additive on fractional completion of the TEV protease cleavage reaction” value (TEV protease) was “little or no effect”.
With `C[S+](C)[O-]` [DMSO, dimethylsulfoxide] the “Effect of additive on fractional completion of the TEV protease cleavage reaction” value (TEV protease) was “little or no effect”.
For `[Cl-].[Na+]` [NaCl, sodium chloride], the “Effect of additive on fractional completion of the TEV protease cleavage reaction” value (TEV protease) was “little or no effect”.
`CCCCCCCCCCCCOS(=O)(=O)[O-].[Na+]` [SDS, sodium dodecylsulfate] was tested, and the “Effect of additive on fractional completion of the TEV protease cleavage reaction” value (TEV protease) was “considerable inhibition”.
In the case of `N=C(N)NCCC[C@H](N)C(=O)O` [arginine], the “Effect of additive on fractional completion of the TEV protease cleavage reaction” value (TEV protease) is reported as “considerable inhibition”.
`CCO` [ethanol] was tested, and the “Effect of additive on fractional completion of the TEV protease cleavage reaction” value (TEV protease) was “considerable inhibition”.
In the case of `OCCO` [ethylene glycol], the “Effect of additive on fractional completion of the TEV protease cleavage reaction” value (TEV protease) is reported as “considerable inhibition”.
For `OCC(O)CO` [glycerol], the “Effect of additive on fractional completion of the TEV protease cleavage reaction” value (TEV protease) was “little or no effect”.
`NCC(=O)O` [glycine] was tested, and the “Effect of additive on fractional completion of the TEV protease cleavage reaction” value (TEV protease) was “little or no effect”.
For `Cl.N=C(N)N` [guanidium hydrochloride], the “Effect of additive on fractional completion of the TEV protease cleavage reaction” value (TEV protease) was “considerable inhibition”.
`OC[C@H]1O[C@@](CO)(O[C@H]2O[C@H](CO)[C@@H](O)[C@H](O)[C@H]2O)[C@@H](O)[C@@H]1O` [sucrose] was tested, and the “Effect of additive on fractional completion of the TEV protease cleavage reaction” value (TEV protease) was “little or no effect”.
For `NC(N)=O` [urea], the “Effect of additive on fractional completion of the TEV protease cleavage reaction” value (TEV protease) was “considerable inhibition”.
For Thrombin, the “Relative rate of reaction, substrate 23F” value [1] was −0.02, the “Relative rate of reaction, substrate 21F” value [2] was 0.0 and the “Relative rate of reaction, substrate 26F” value [3] was 0.0. For the same compound, the “Relative rate of reaction, substrate 22F” value [4] was 0.4, the “Relative rate of reaction, substrate 24F” value [5] was 0.0 and the “Relative rate of reaction, substrate 25F” value [6] was 1. The Specific reaction rate ([6]; slope of initial rate versus protease concentration, errors two standard deviations) was 240±20 moles substrate proteolyzed per mole of protease per hour and the Specific reaction rate ([6]; thrombin units adjusted for equivalence with enterokinase and Factor Xa unit definition) was 0.20±0.02 nmole substrate proteolyzed per unit enzyme per hour.
In the case of “Trypsin: protease tested on tetraCys-labeled His6-tetraCys-X-MBP substrates”, the “Relative rate of reaction, substrate 23F” value [1] is reported as 0.1, the “Relative rate of reaction, substrate 21F” value [2] is reported as 0.3 and the “Relative rate of reaction, substrate 22F” value [4] is reported as 1. For the same compound, the “Turnover number, fold greater than for TEV protease” value [4, 7] was 10 fold, the “Turnover number, fold greater than that observed for thrombin” value [4, 7] was 3 fold and the Specific reaction rate ([4]; substrate 22-F, slope of initial rate versus protease concentration, errors two standard deviations) was 760±60 moles substrate proteolyzed per mole of protease per hour. The “Relative rate of reaction, substrate 24F” value [5] was 0.4 and the “Relative rate of reaction, substrate 25F” value [6] was 0.5.

Source: patent publication US20050227306A1, “Fluorescence polarization assay to detect protease cleavage” (priority 2003, published 2005)
